# Test results reported in ChEMBL document CHEMBL5338754, “Identification of Binding Sites in the Nucleotide-Binding Domain of P-Glycoprotein for a Potent and Nontoxic Modulator, the Amine-Containing Monomeric Flavonoid FM04” (J Med Chem, 2023).
# How the values were obtained:
# [1] = target: P-gp (ABCB1) wildtype (Homo sapiens, UniProt P08183); assay: Activation of P-gp ATPase activity in wildtype human P-gp expressed in HEK293FT cell microsomes assessed as fold change of ATPase activity at 20 uM incubated for 1 hr in presence of ATP by Glo-luminescence based microplate reader assay relative to DMSO; set-up: species or system Microsome; conditions: microsomes of HEK293FT cells expressing wildtype human P-gp, read-out: FC
# [2] = target: ATP-dependent translocase ABCB1 (Homo sapiens, UniProt P08183); assay: Negative allosteric modulator activity at P-gp in human LCC6MDR cells overexpressing P-gp assessed as reversal of P-gp mediated paclitaxel resistance activity by measuring relative fold at 1 uM incubated for 5 days by MTS assay; assay type: cell-based; conditions: 120 h, time 5 day
# [3] = target: ATP-dependent translocase ABCB1 (Homo sapiens, UniProt P08183, Q1193E); assay: Negative allosteric modulator activity at human P-gp Q1193E mutant expressed in HEK293FT cells assessed as increase in intracellular doxorubicin accumulation using doxorubicin as substrate at 1 uM incubated for 150 mins by microplate reader assay (reference value: 62.9 +/- 1.4 %); assay type: cell-based; conditions: 2.5 h
# [4] = target: ATP-dependent translocase ABCB1 (Homo sapiens, UniProt P08183, Q1193C); assay: Negative allosteric modulator activity at human P-gp Q1193C mutant expressed in HEK293FT cells assessed as fold change in intracellular doxorubicin accumulation using doxorubicin as substrate at 1 uM incubated for 150 mins by microplate reader assay relative to DMSO; assay type: cell-based; conditions: 2.5 h
# Sequence of ATP-dependent translocase ABCB1 (Homo sapiens, UniProt P08183, Q1193C) (P08183 whole entry Q1193C): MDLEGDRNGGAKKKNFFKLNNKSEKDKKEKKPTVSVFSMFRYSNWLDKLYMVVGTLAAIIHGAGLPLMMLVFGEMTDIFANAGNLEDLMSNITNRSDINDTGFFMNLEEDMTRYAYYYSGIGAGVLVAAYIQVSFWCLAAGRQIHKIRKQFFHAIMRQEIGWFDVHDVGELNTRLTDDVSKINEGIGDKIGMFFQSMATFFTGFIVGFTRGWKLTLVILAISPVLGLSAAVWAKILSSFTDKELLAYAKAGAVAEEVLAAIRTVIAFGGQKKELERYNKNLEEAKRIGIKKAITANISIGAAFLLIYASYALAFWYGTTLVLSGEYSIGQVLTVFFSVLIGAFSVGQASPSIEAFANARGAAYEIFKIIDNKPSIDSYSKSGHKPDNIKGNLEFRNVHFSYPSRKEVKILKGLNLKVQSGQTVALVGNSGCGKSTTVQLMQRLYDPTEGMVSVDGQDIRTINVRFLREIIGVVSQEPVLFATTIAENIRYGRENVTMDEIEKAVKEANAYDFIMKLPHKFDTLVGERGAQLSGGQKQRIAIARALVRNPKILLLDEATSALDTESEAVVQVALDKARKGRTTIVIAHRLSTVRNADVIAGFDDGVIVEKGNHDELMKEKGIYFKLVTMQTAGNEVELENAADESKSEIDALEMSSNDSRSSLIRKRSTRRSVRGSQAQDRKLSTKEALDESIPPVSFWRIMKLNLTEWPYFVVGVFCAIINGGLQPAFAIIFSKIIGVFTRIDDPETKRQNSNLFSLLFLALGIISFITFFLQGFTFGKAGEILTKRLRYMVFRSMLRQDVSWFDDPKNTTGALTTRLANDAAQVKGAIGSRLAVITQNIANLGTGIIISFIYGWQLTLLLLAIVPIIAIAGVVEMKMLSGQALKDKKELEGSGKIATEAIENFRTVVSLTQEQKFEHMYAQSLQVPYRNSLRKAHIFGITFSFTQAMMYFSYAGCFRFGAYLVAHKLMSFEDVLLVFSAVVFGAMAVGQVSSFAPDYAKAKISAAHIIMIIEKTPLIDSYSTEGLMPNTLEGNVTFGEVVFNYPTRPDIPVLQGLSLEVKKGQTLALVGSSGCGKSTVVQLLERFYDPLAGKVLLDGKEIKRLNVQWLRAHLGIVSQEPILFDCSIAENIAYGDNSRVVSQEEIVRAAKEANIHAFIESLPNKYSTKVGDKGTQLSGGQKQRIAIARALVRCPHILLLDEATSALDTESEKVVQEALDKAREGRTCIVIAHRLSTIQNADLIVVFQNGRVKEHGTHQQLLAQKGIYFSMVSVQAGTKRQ
# Sequence of ATP-dependent translocase ABCB1 (Homo sapiens, UniProt P08183) (P08183 whole entry): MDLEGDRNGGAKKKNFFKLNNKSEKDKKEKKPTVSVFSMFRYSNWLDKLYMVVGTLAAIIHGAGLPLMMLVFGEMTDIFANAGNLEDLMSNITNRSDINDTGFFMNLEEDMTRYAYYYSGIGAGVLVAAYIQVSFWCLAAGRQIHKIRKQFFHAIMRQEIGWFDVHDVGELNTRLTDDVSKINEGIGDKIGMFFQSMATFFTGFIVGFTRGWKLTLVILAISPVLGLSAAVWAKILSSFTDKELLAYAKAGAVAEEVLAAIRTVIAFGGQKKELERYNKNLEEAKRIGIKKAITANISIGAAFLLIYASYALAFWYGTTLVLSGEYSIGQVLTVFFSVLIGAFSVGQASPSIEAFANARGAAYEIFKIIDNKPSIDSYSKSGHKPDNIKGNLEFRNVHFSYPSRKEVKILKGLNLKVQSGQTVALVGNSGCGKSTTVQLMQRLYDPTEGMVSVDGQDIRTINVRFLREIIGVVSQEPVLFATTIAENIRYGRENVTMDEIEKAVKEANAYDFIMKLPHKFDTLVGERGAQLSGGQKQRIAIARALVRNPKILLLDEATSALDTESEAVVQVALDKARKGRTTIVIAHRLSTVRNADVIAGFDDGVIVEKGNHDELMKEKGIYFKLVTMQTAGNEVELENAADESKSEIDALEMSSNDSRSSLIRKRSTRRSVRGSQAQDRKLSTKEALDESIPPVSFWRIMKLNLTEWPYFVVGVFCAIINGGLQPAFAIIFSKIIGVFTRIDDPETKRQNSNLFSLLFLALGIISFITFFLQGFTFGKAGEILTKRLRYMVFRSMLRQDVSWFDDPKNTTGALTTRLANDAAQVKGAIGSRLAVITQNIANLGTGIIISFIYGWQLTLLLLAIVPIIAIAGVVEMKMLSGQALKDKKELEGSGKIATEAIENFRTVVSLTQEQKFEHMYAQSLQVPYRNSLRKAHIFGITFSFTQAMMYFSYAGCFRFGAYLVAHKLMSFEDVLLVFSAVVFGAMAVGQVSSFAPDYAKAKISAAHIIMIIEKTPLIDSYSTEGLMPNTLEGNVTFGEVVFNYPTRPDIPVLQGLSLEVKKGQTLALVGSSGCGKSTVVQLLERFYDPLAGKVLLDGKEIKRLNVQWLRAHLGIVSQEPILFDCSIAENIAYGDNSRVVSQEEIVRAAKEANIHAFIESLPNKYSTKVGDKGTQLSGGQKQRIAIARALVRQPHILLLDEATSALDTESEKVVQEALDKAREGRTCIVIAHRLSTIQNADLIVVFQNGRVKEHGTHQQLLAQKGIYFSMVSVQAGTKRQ
# Sequence of P-gp (ABCB1) wildtype (P08183 whole entry): as above
# Sequence of ATP-dependent translocase ABCB1 (Homo sapiens, UniProt P08183, Q1193E) (P08183 whole entry Q1193E): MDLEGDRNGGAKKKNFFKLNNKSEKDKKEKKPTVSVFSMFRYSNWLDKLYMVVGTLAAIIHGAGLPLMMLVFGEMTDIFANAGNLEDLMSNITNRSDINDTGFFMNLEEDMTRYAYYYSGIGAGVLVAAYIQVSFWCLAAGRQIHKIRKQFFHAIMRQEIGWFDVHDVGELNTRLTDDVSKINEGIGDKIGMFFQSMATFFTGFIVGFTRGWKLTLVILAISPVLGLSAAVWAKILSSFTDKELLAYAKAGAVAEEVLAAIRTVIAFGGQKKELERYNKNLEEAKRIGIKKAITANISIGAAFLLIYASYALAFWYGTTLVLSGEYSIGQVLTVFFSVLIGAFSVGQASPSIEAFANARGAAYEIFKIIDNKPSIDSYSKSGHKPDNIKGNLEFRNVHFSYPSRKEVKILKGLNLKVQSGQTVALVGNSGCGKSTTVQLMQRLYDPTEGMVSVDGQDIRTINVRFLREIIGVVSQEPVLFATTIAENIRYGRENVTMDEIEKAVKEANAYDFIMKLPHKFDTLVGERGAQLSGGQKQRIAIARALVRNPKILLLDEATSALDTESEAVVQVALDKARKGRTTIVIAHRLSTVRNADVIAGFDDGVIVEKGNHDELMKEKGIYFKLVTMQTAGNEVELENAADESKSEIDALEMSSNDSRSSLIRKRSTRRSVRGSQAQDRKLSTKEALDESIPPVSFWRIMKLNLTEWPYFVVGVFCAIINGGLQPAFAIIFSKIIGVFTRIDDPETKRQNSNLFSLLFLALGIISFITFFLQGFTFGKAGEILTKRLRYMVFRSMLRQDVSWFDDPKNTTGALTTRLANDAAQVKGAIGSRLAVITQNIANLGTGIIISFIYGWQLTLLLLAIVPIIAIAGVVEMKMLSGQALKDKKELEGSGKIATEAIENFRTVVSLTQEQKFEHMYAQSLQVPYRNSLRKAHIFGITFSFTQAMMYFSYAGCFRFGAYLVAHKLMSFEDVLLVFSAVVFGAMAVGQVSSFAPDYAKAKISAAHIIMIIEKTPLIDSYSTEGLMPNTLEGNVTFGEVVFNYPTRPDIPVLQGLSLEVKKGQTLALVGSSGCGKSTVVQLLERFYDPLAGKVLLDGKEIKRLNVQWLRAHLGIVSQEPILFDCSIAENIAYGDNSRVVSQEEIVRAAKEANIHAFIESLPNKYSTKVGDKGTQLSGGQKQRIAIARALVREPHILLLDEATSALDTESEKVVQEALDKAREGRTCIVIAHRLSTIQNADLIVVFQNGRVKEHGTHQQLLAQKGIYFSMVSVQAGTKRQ
compound,measurement,setting,value
O=c1cc(-c2ccc(OCCOCCNCc3ccccc3)cc2)oc2ccccc12,"fold induction at 1 h, 20 µM",[1],1.6
same,fold change (FC),[2],34.1
same,Activity,[3],71.4%
same,fold change (FC),[4],1.3
